Experimental data published in ChEMBL document CHEMBL1129678, “Structure-activity relationships in a series of 2(1H)-quinolones bearing different acidic function in the 3-position: 6,7-dichloro-2(1H)-oxoquinoline-3-phosphonic acid, a new potent and selective AMPA/kainate antagonist with neuroprotective properties” (J Med Chem, 1996).
The source made the active and inactive calls. The calls are words filed in the database; no cut-off is given here.

Experiments:
Glutamate NMDA receptor [1] = assay: Inhibitory activity against [3H]glycine binding site of N-methyl-D-aspartate glutamate receptor 1 in rat cortical membranes; type: cell membranes, Membrane
Glutamate NMDA receptor [2] = assay: Antagonistic activity against N-methyl-D-aspartate glutamate receptor 1 in Xenopus oocytes; type: functional, cell-based; conditions: oocyte
[3] = molecular target: Glutamate receptor ionotropic, kainate; assay: Antagonistic activity against rat ionotropic glutamate receptor ionotropic kainate in xenopus oocytes; type: functional, cell-based; conditions: oocyte
[4] = molecular target: AMPA receptor (Rattus norvegicus); assay: Inhibitory activity against [3H]AMPA binding to rat cortical membranes
[5] = Selectivity between AMPA/kainate receptor and NMDA/glycine receptor; parameters: reference not given here
Mus musculus [6] = assay: Effective dose required to protect 50% of DBA/2 mice from audiogenic seizures, after ip administration; type: functional
Mus musculus [7] = assay: Effective dose of a compound to […] 50% audiogenic seizures in DBA/2 mice when administered by ip (mg/Kg); type: functional
Gerbillinae [8] = assay: %Protection against transient global ischemia in adult Mongolian gerbil at dose 30 mg/kg by ip administration tested against 6; type: functional; conditions: route intraperitoneal
Mus musculus [9] = assay: Effective dose of a compound to […] 50% audiogenic seizures in DBA/2 mice when administered by po (mg/kg); Not active; type: functional, organism-based
Gerbillinae [10] = assay: %Protection against transient global ischemia in adult Mongolian gerbil at dose 10 mg/kg by ip administration tested against 10; type: functional; conditions: route intraperitoneal
Gerbillinae [11] = assay: %Protection against transient global ischemia in adult Mongolian gerbil at dose 30 mg/Kg by ip administration tested against 6; type: functional
Mus musculus [12] = assay: Effective dose required to protect 50% of DBA/2 mice from audiogenic seizures, after po administration; type: functional
Gerbillinae [13] = assay: %Protection against transient global ischemia in adult Mongolian gerbil at dose 10 mg/Kg by ip administration tested against 10; type: functional

SMILES	IC50 (Glutamate NMDA receptor [2]) [µM]	IC50 [3] [µM]	Selectivity [5]	other results
O=c1[nH]c2cc(Cl)c(Cl)cc2cc1P(=O)(O)O	83.5	2.1	–	IC50 (Glutamate NMDA receptor [1]): 111 µM; IC50 [4]: 0.9 µM
O=P(O)(OCC1CCCC1)c1cc2cc(Cl)c(Cl)cc2nc1O	74	15	5	–
O=[N+]([O-])c1ccc2cc(P(=O)(O)O)c(O)nc2c1	57	1.4	41	–
OB(O)c1cc2c(Cl)cc(Cl)cc2nc1O	> 300	> 100	–	–
O=C(O)CSc1cc2ccc([N+](=O)[O-])cc2nc1O	> 100	5	> 20	–
O=c1[nH]c2cc([N+](=O)[O-])ccc2cc1-c1cc(O)n[nH]1	> 100	> 30	–	–
O=C(Nc1nn[nH]n1)c1cc2ccc([N+](=O)[O-])cc2nc1O	> 16	100	> 0.16	–
O=[N+]([O-])c1cc2cc(P(=O)(O)O)c(O)nc2cc1[N+](=O)[O-]	51.5	0.15	343	–
NS(=O)(=O)c1cccc2c1c([N+](=O)[O-])cc1nc(O)c(O)nc12 [NBQX]	255	–	–	Protection (Gerbillinae [8]): 50%; IC50 (Glutamate NMDA receptor [1]): > 500 µM; ED50 (Mus musculus [6]): 8 mg/kg; ED50 (Mus musculus [9]): inactive; Protection (Gerbillinae [10]): 40%
O=[N+]([O-])c1ccc2cc(-c3nnc(O)o3)c(O)nc2c1	> 100	> 100	–	–
O=[N+]([O-])c1ccc2cc(-c3nn[nH]n3)c(O)nc2c1	> 16	3	> 5	–
O=P(O)(O)c1cc2cc(F)c(F)cc2nc1O	111	65	1.71	–
O=C(NO)c1cc2ccc([N+](=O)[O-])cc2nc1O	> 100	10	> 10	–
CP(=O)(O)c1cc2c(Cl)cc(Cl)cc2nc1O	51	> 100	< 0.5	–
CCOP(=O)(O)c1cc2cc(Cl)c(Cl)cc2nc1O	40	15	2.6	–
O=P(O)(O)c1cc2cc(Cl)c(Cl)cc2nc1O	–	–	39.8	Protection (Gerbillinae [11]): 100%; ED50 (Mus musculus [12]): 45 mg/kg; ED50 (Mus musculus [6]): 19 mg/kg; Protection (Gerbillinae [13]): 40%
NC(=O)c1cc2ccc([N+](=O)[O-])cc2nc1O	> 300	> 300	–	–

Now from value to molecule, other results behind:

IC50 (Glutamate NMDA receptor [2]) [µM]	IC50 [3] [µM]	Selectivity [5]	SMILES	other results
0.65	8	0.08	O=C(O)c1cc2c(Cl)cc(Cl)cc2nc1O	–
0.81	10	0.08	O=C(O)c1cc2cc(Cl)c(Cl)cc2nc1O	–
0.16	0.16	1	O=[N+]([O-])c1cc2cc(NS(=O)(=O)C(F)(F)F)c(O)nc2cc1[N+](=O)[O-]	IC50 (Glutamate NMDA receptor [1]): 1.38 µM; ED50 (Mus musculus [6]): > 50 mg/kg; IC50 [4]: 0.09 µM
30	4	7.5	O=P(O)(O)c1cc2c(Cl)cc(Cl)cc2nc1O	IC50 (Glutamate NMDA receptor [1]): 5.1 µM; ED50 (Mus musculus [7]): > 50 mg/kg; IC50 [4]: 3.5 µM
6.5	1.3	5	O=C(O)c1cc2ccc([N+](=O)[O-])cc2nc1O	–
0.57	0.3	1.9	O=C(O)c1cc2cc([N+](=O)[O-])c([N+](=O)[O-])cc2nc1O	IC50 (Glutamate NMDA receptor [1]): 1.8 µM; ED50 (Mus musculus [6]): > 50 mg/kg; IC50 [4]: 0.15 µM
30.5	0.3	102	O=c1[nH]c2cc(-n3ccnc3)c([N+](=O)[O-])cc2[nH]c1=O [YM-90K]	–
20	0.6	33	O=[N+]([O-])c1cc2cc(-c3nn[nH]n3)c(O)nc2cc1[N+](=O)[O-]	–
